The results in this text go back to PubChem BioAssay AID256 (DTP/NCI, 2004).

In this assay the test system is CD2F1 mice, L1210 leukemia ip, survival T/C. Kind of assay: NCI In Vivo Anticancer Drug Screen. Data for tumor model L1210 Leukemia (intraperitoneal) in CD2F1 (CDF1) mice. Conditions: higher = longer survival. The method in brief:
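Transplantable tumor in mice; compound-treated vs vehicle-treated groups. Read-out = treated/control ratio of the measured endpoint.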

Where [1] appears, read: endpoint: mean survival time, dose: 50.0 mg/kg/injection, schedule: Q01DX009 (ip), vehicle: saline with Tween-80.
Setting [2] is: endpoint: mean survival time, dose: 100.0 mg/kg/injection, schedule: Q01DX009 (ip), vehicle: saline with Tween-80.
The mark [3] stands for this setting: endpoint: mean survival time, dose: 200.0 mg/kg/injection, schedule: Q01DX009 (ip), vehicle: saline with Tween-80.
[4] abbreviates: endpoint: mean survival time, dose: 100.0 mg/kg/injection, schedule: Q04DX003 (ip), vehicle: saline with Tween-80.
Setting [5] is: endpoint: mean survival time, dose: 200.0 mg/kg/injection, schedule: Q04DX003 (ip), vehicle: saline with Tween-80.
Where [6] appears, read: endpoint: mean survival time, dose: 12.5 mg/kg/injection, schedule: Q01DX005 (ip), vehicle: other.
Setting [7] is: endpoint: mean survival time, dose: 25.0 mg/kg/injection, schedule: Q01DX005 (ip), vehicle: other.
Setting [8] is: endpoint: mean survival time, dose: 50.0 mg/kg/injection, schedule: Q01DX005 (ip), vehicle: other.

Where “and” joins values, the source holds several entries; their conditions need not be identical. Equal values may be shown once. Inconclusive results and toxic doses are left out.

Turning to `Nc1nc(Nc2ccc(C(=O)O)cc2)n[nH]1`, the T/C was 96 % of control (endpoint: mean survival time, dose: 100.0 mg/kg/injection, schedule: Q01DX001 (ip), vehicle: saline sonified); 105 % of control (endpoint: mean survival time, dose: 100.0 mg/kg/injection, schedule: Q01DX009 (ip), vehicle: saline sonified); 104 % of control (endpoint: mean survival time, dose: 200.0 mg/kg/injection, schedule: Q01DX001 (ip), vehicle: saline sonified); 96 % of control (endpoint: mean survival time, dose: 200.0 mg/kg/injection, schedule: Q01DX009 (ip), vehicle: saline sonified); 96 % of control (endpoint: mean survival time, dose: 400.0 mg/kg/injection, schedule: Q01DX001 (ip), vehicle: saline sonified); 88 % of control (endpoint: mean survival time, dose: 400.0 mg/kg/injection, schedule: Q01DX009 (ip), vehicle: saline sonified).
As to `COS(=O)(=O)O`, the T/C reads like this: (endpoint: mean survival time, dose: 100.0 mg/kg/injection, schedule: Q04DX003 (ip), vehicle: saline) 96 % of control; (endpoint: mean survival time, dose: 200.0 mg/kg/injection, schedule: Q04DX003 (ip), vehicle: saline) 96 % of control.
Regarding `CO[C@@]12[C@@H]3N[C@@H]3CN1C1=C(C(=O)C(Nc3nc(C)cs3)=C(C)C1=O)[C@@H]2COC(N)=O`, the T/C was 116 % of control and 112 % of control (endpoint: mean survival time, dose: 1.5 mg/kg/injection, schedule: Q01DX001 (ip), vehicle: water); 115 % of control (endpoint: mean survival time, dose: 3.0 mg/kg/injection, schedule: Q01DX001 (ip), vehicle: water); 121 % of control (endpoint: mean survival time, dose: 6.0 mg/kg/injection, schedule: Q01DX001 (ip), vehicle: water).
Consider `CC(C)[C@]1(O)CC[C@H]2[C@@H]3CCc4cc(O)ccc4[C@H]3CC[C@@]21C`, for which the T/C was 104 % of control (endpoint: mean survival time, dose: 100.0 mg/kg/injection, schedule: Q01DX009 (sc), vehicle: Klucel (hydroxypropylcellulose) (HPC)); 98 % of control (endpoint: mean survival time, dose: 200.0 mg/kg/injection, schedule: Q01DX009 (sc), vehicle: Klucel (hydroxypropylcellulose) (HPC)); 92 % of control (endpoint: mean survival time, dose: 400.0 mg/kg/injection, schedule: Q01DX009 (sc), vehicle: Klucel (hydroxypropylcellulose) (HPC)).
Consider `COc1cc(Cl)ccc1NC(=O)Nc1cc(C)on1`, for which the T/C by setting is: under setting [1], 100 % of control; under setting [2], 95 % of control; under setting [3], 95 % of control.
For the molecule `NCC1CCC(C(=O)O)CC1` (stereo not drawn), the T/C (endpoint: median survival time, dose: 12.5 mg/kg/injection, schedule: Q01DX009 (ip), vehicle: saline with Tween-80) was 101 % of control; the T/C (endpoint: median survival time, dose: 25.0 mg/kg/injection, schedule: Q01DX009 (ip), vehicle: saline with Tween-80) is 101 % of control; the T/C (endpoint: median survival time, dose: 50.0 mg/kg/injection, schedule: Q01DX005 (ip), vehicle: saline with Tween-80) was 110 % of control; the T/C (endpoint: median survival time, dose: 50.0 mg/kg/injection, schedule: Q01DX009 (ip), vehicle: saline with Tween-80) was 100 % of control; the T/C (endpoint: median survival time, dose: 100.0 mg/kg/injection, schedule: Q01DX005 (ip), vehicle: saline with Tween-80) was 104 % of control; the T/C (endpoint: median survival time, dose: 100.0 mg/kg/injection, schedule: Q01DX009 (ip), vehicle: saline with Tween-80) was 101 % of control. Besides, the T/C by setting is: (endpoint: median survival time, dose: 200.0 mg/kg/injection, schedule: Q01DX005 (ip), vehicle: saline with Tween-80) 97 % of control; (endpoint: median survival time, dose: 200.0 mg/kg/injection, schedule: Q01DX009 (ip), vehicle: saline with Tween-80) 100 % of control; (endpoint: median survival time, dose: 400.0 mg/kg/injection, schedule: Q01DX005 (ip), vehicle: saline with Tween-80) 105 % of control; (endpoint: median survival time, dose: 400.0 mg/kg/injection, schedule: Q01DX009 (ip), vehicle: saline with Tween-80) 100 % of control; (endpoint: median survival time, dose: 800.0 mg/kg/injection, schedule: Q01DX005 (ip), vehicle: saline with Tween-80) 97 % of control.
`CCS(=O)(=O)OCCCNCCCOS(=O)(=O)CC`: the T/C (endpoint: mean survival time, dose: 12.5 mg/kg/injection, schedule: Q01DX001 (ip), vehicle: saline) is 103 % of control; the T/C (endpoint: mean survival time, dose: 25.0 mg/kg/injection, schedule: Q01DX001 (ip), vehicle: saline) is 105 % of control; the T/C (endpoint: mean survival time, dose: 100.0 mg/kg/injection, schedule: Q01DX001 (ip), vehicle: saline) was 160 % of control; the T/C (endpoint: mean survival time, dose: 200.0 mg/kg/injection, schedule: Q01DX001 (ip), vehicle: saline) was 186 % of control.
As for `O=C(O)C(Cl)(c1ccccc1)C(Cl)c1ccccc1` (stereo not drawn), the T/C was 94 % of control under setting [1]; 100 % of control under setting [2]; 101 % of control under setting [4]; 98 % of control under setting [3]; 101 % of control under setting [5].
As for `CCOP(=O)(NCc1ccco1)OCC`, the T/C was 106 % of control (endpoint: mean survival time, dose: 50.0 mg/kg/injection, schedule: Q01DX001 (ip), vehicle: carboxymethylcellulose (CMC)) and 112 % of control (endpoint: mean survival time, dose: 100.0 mg/kg/injection, schedule: Q01DX001 (ip), vehicle: carboxymethylcellulose (CMC)).
In the case of `CCCCCCCCCCCCCCCCCCn1cnc2c(Cl)ncnc21`, the T/C by setting is: under setting [6], 87 % of control; under setting [7], 91 % of control; under setting [8], 92 % of control; (endpoint: mean survival time, dose: 200.0 mg/kg/injection, schedule: Q01DX005 (ip), vehicle: other) 86 % of control.
With `N#Cc1cnn2ccn(C3OC(CO)C(O)C3O)c12` (stereo not drawn), the T/C reads like this: (endpoint: median survival time, dose: 9.38 mg/kg/injection, schedule: Q01DX005 (ip), vehicle: water) 97 % of control; (endpoint: median survival time, dose: 18.75 mg/kg/injection, schedule: Q01DX005 (ip), vehicle: water) 100 % of control; (endpoint: median survival time, dose: 37.5 mg/kg/injection, schedule: Q01DX005 (ip), vehicle: water) 98 % of control; (endpoint: median survival time, dose: 75.0 mg/kg/injection, schedule: Q01DX005 (ip), vehicle: water) 98 % of control; (endpoint: median survival time, dose: 150.0 mg/kg/injection, schedule: Q01DX005 (ip), vehicle: water) 97 % of control.
For the molecule `Cn1sc2ccccc2c1=S`, the T/C was 101 % of control under setting [4]; 96 % of control under setting [5]; 95 % of control (endpoint: mean survival time, dose: 400.0 mg/kg/injection, schedule: Q04DX003 (ip), vehicle: saline with Tween-80).
With `CCN(CC)c1nc(CCc2ccc(N(C)C)cc2)c2[nH]cnc2n1`, the T/C (endpoint: mean survival time, dose: 3.13 mg/kg/injection, schedule: Q01DX005 (ip), vehicle: other) was 94 % of control; the T/C (endpoint: mean survival time, dose: 6.25 mg/kg/injection, schedule: Q01DX005 (ip), vehicle: other) was 93 % of control; the T/C under setting [6] is 93 % of control; the T/C under setting [7] was 89 % of control; the T/C under setting [8] is 89 % of control.
Take `O=C(CCl)Nc1ccc(SSc2ccc(NC(=O)CCl)cc2)cc1`: the T/C runs as follows: (endpoint: mean survival time, dose: 25.0 mg/kg/injection, schedule: Q01DX009 (ip), vehicle: Klucel (hydroxypropylcellulose) (HPC)) 95 % of control; (endpoint: mean survival time, dose: 50.0 mg/kg/injection, schedule: Q01DX009 (ip), vehicle: Klucel (hydroxypropylcellulose) (HPC)) 96 % of control; (endpoint: mean survival time, dose: 100.0 mg/kg/injection, schedule: Q01DX009 (ip), vehicle: Klucel (hydroxypropylcellulose) (HPC)) 93 % of control.
Take `CCCC(C)C1C(=O)N(C)C(=O)N(C)C1=O` (stereo not drawn): the T/C reads like this: (endpoint: mean survival time, dose: 75.0 mg/kg/injection, schedule: Q01DX001 (ip), vehicle: saline) 104 % of control; (endpoint: mean survival time, dose: 150.0 mg/kg/injection, schedule: Q01DX001 (ip), vehicle: saline) 103 % of control; (endpoint: mean survival time, dose: 300.0 mg/kg/injection, schedule: Q01DX001 (ip), vehicle: saline) 98 % of control.
As for `CCOC(=O)c1c(C)cc(C)cc1C`, the T/C reads like this: (endpoint: mean survival time, dose: 50.0 mg/kg/injection, schedule: Q01DX001 (ip), vehicle: Klucel (hydroxypropylcellulose) (HPC)) 99 % of control; (endpoint: mean survival time, dose: 100.0 mg/kg/injection, schedule: Q01DX001 (ip), vehicle: Klucel (hydroxypropylcellulose) (HPC)) 102 % of control; (endpoint: mean survival time, dose: 200.0 mg/kg/injection, schedule: Q01DX001 (ip), vehicle: Klucel (hydroxypropylcellulose) (HPC)) 96 % of control.
In the case of `CNCC(=O)NC(CO)C(=O)NC(CO)C(=O)NC1C(C(N)=O)OC(n2ccc(N)nc2=O)C(O)C1O` (stereo not drawn), the T/C by setting is: (endpoint: mean survival time, dose: 0.19 mg/kg/injection, schedule: Q01DX005 (ip), vehicle: water) 98 % of control; (endpoint: mean survival time, dose: 0.38 mg/kg/injection, schedule: Q01DX005 (ip), vehicle: water) 104 % of control; (endpoint: mean survival time, dose: 0.75 mg/kg/injection, schedule: Q01DX005 (ip), vehicle: water) 98 % of control.
